Activity calls are given as the source filed them. The rule behind the calls is not given here. Starred links: 1 amine or outer side, 2 acyl side, 3 side chain; linkers in the order of their positions; H or OH if unused. Non-standard residues stand in square brackets, D forms with d. Residues, ends and D or L forms follow the SMILES beside them. X1 = CC[C@@H](N[*:1])[C@H](C)C(=O)[*:2]; NMeI = CC[C@H](C)[C@H](NC)C(=O)O; NMeV = CN[C@H](C(=O)O)C(C)C; Hiv = CC(C)[C@H](O)C(=O)O; NMeA = CN[C@@H](C)C(=O)O; Lac = C[C@H](O)C(=O)O
Experiments:
[1] = system: Trypanosoma brucei rhodesiense; assay: Antitrypanosomal activity against Trypanosoma brucei rhodesiense IL-1501 measured after 69 hrs by alamar blue staining based microplate fluorescence assay; type: functional, organism-based; conditions: IL-1501, 69 h
Plasmodium falciparum = assay: Antimalarial activity against synchronized asexual blood stage Plasmodium falciparum 3D7 at 10 uM measured after 72 hrs by LDH assay; type: functional, organism-based
HeLa = assay: Antiproliferative activity against human HeLa cells measured after 72 hrs by MTT assay; type: functional, cell-based

Row | IC50 [1] [nM] | IC50 (HeLa) [nM] | Structure (SMILES) | Activity (Plasmodium falciparum)
1 | 6.3 |  | N=C(N)c1ccc(OCCCCCOc2ccc(C(=N)N)cc2)cc1 [PENTAMIDINE] | 
2 | 730 | 3700 | CC[C@H](C)[C@H]1C(=O)N[C@@H](C)C(=O)N(C)[C@@H](C(C)C)C(=O)N(C)[C@@H](C)C(=O)N[C@@H](C(C)C)C(=O)N(C)[C@@H](C(C)C)C(=O)O[C@@H](C)C(=O)N[C@H](CC)[C@H](C)C(=O)O[C@@H](C(C)C)C(=O)N1C (cyclo(A[NMeV][NMeA]V[NMeV][Lac][X1][Hiv][NMeI])) | inactive

— ChEMBL document CHEMBL5576107, “Wajeepeptin, a Cytotoxic and Antitrypanosomal Cyclic Depsipeptide from a Marine Moorena sp. Cyanobacterium” (J Nat Prod, 2024)
